Results taken from ChEMBL document CHEMBL4651402, “Screening of ~5500 FDA-approved drugs and clinical candidates for anti-SARS-CoV-2 activity” (2021).
Counter-ions that a name gives are not always drawn.

Tested on: SARS-CoV-2
Experiment: microbe, parasite or virus in culture
Conditions: Severe acute respiratory syndrome coronavirus 2, Vero C1008, 48 h

SMILES	IC50	IC50 (read-out: pIC50 (converted))
CCC(=O)OC1C(OC2C(C)C(OC3CC(C)(OC)C(O)C(C)O3)C(C)C(=O)OC(CC)C(C)(O)C(O)C(C)C(=O)C(C)CC2(C)O)OC(C)CC1N(C)C (stereo unspecified)	> 20 µM	> 20 µM
N=C(N)NN=C1C=CC(=NNC(N)=S)C=C1 [AMBAZONE]	> 20 µM	> 20 µM
NCC1(CC(=O)O)CCCCC1 [GABAPENTIN]	> 20 µM	> 20 µM
CN(C)CCc1c[nH]c2ccccc12	> 20 µM	> 20 µM
COc1ccccc1N1CCN(CCn2c(=O)[nH]c3ccccc3c2=O)CC1	> 20 µM	> 20 µM
NCC(CC(=O)O)c1ccc(Cl)cc1 (stereo unspecified) [BACLOFEN]	> 20 µM	> 20 µM
NS(=O)(=O)c1cc(Cl)c(Cl)c(S(N)(=O)=O)c1 [DICHLORPHENAMIDE]	> 20 µM	> 20 µM
CC(C(=O)O)c1cccc(C(=O)c2ccccc2)c1 (stereo unspecified) [KETOPROFEN]	> 20 µM	> 20 µM
CC1=C(C(=O)O)N2C(=O)C(NC(=O)C(N)c3ccc(O)cc3)C2SC1 (stereo unspecified)	> 20 µM	> 20 µM
CN1CCC2=C[C@H](O)[C@H]3OC(=O)c4cc5c(cc4[C@H]3[C@@H]21)OCO5	> 20 µM	> 20 µM
COC(=O)/C=C/C(=O)O [MONOMETHYL FUMARATE]	> 20 µM	> 20 µM
CN(C/C=C/C#CC(C)(C)C)Cc1cccc2ccccc12 [TERBINAFINE]	> 20 µM	> 20 µM
CCN(CC)CCNC(=O)c1cc(Br)c(N)cc1OC [BROMOPRIDE]	> 20 µM	> 20 µM
Clc1ccc2c(c1)C(N1CCNCC1)=Nc1ccccc1O2 [AMOXAPINE]	> 20 µM	> 20 µM
COc1cc(Nc2ncc(F)c(Nc3ccc4c(n3)N(COP(=O)(O)O)C(=O)C(C)(C)O4)n2)cc(OC)c1OC [FOSTAMATINIB]	> 20 µM	> 20 µM
COc1ccccc1N1CCN(CC(O)COc2cccc3ccccc23)CC1 (stereo unspecified) [NAFTOPIDIL]	> 20 µM	> 20 µM
NCCc1ccc(O)c(O)c1 [DOPAMINE]	> 20 µM	> 20 µM
C/C=C(/C(=C/C)c1ccc(O)cc1)c1ccc(O)cc1 [DIENESTROL]	> 20 µM	> 20 µM
CCN(CC)CCOC(=O)C(c1ccccc1)N1CCCCC1 (stereo unspecified) [BIETAMIVERINE]	> 20 µM	> 20 µM
Cc1cc(O)cc(=O)o1	> 20 µM	> 20 µM
CN1CCN(/C=C2\N=C3CN=C(c4ccccc4Cl)c4cc([N+](=O)[O-])ccc4N3C2=O)CC1 [LOPRAZOLAM]	> 20 µM	> 20 µM

SMILES	IC50	IC50 (read-out: pIC50 (converted))
CC(C)C[C@H](NC(=O)OCC1c2ccccc2-c2ccccc21)C(=O)O	> 20 µM	> 20 µM
CCN1CCN(c2cc3c(cc2F)c(=O)c(C(=O)O)cn3C2CC2)CC1 [ENROFLOXACIN]	> 20 µM	> 20 µM
CCCCc1cc2ccccc2c(OCCN(C)C)n1 [DIMETHISOQUIN]	> 20 µM	> 20 µM
CCN(CC)CCNC(C(=O)OCCC(C)C)c1ccccc1 (stereo unspecified) [CAMYLOFIN]	> 20 µM	> 20 µM
CCN[C@H]1C[C@H](C)S(=O)(=O)c2sc(S(N)(=O)=O)cc21 [DORZOLAMIDE]	> 20 µM	> 20 µM
CNC(=O)c1ccc(C)c(-n2c(C)cc(OCc3ccc(F)cc3F)c(Br)c2=O)c1 [PH-797804]	> 20 µM	> 20 µM
CCCCc1cc(OC)c2ccccc2c1OC(C)=O [BUNAPROLAST]	> 20 µM	> 20 µM
CC(=O)/C=C(\C)NCCN/C(C)=C/C(C)=O	> 20 µM	> 20 µM
CCOc1ccc(Cc2cc([C@]34OC[C@](CO)(O3)[C@@H](O)[C@H](O)[C@H]4O)ccc2Cl)cc1 [ERTUGLIFLOZIN]	> 20 µM	> 20 µM
COc1cc2nc(N3CCN(C(=O)C4CCCO4)CC3)nc(N)c2cc1OC (stereo unspecified) [TERAZOSIN]	> 20 µM	> 20 µM
COc1cccc(-c2ccc(NC(=O)C3=C(C(=O)O)CCC3)c(F)c2)c1 [VIDOFLUDIMUS]	> 20 µM	> 20 µM
CNC(CC(=O)O)C(=O)O (stereo unspecified)	> 20 µM	> 20 µM
COc1ccc(C(=O)NC2(C(=O)O)Cc3ccccc3C2)cc1OCCc1cccc(C)c1 [FIPAXALPARANT]	> 20 µM	> 20 µM
COC(=O)C1=COC(O[C@H]2OC(CO)[C@H](O)C(O)C2O)[C@H]2C1C(=O)C[C@@H]2C (stereo partly specified)	> 20 µM	> 20 µM
Cc1ccnc2c1NC(=O)c1cccnc1N2C1CC1 [NEVIRAPINE]	> 20 µM	> 20 µM
CCOc1ccc(Cc2cc([C@@H]3O[C@H](SC)[C@@H](O)[C@H](O)[C@H]3O)ccc2Cl)cc1 [SOTAGLIFLOZIN]	> 20 µM	> 20 µM
COc1cc(N)c(Cl)cc1C(=O)NC1CCN2CCCC1C2 (stereo unspecified) [RENZAPRIDE]	> 20 µM	> 20 µM
Cc1nc2ccccc2c(=O)n1-c1ccccc1Cl [MECLOQUALONE]	> 20 µM	> 20 µM
O=NN(CCCl)C(=O)NCCCl [CARMUSTINE]	> 20 µM	> 20 µM
CC(C)=CCC[C@]1(C)C=Cc2c(O)c3c(c(CC=C(C)C)c2O1)O[C@]12C(=C[C@@H]4C[C@H]1C(C)(C)O[C@@]2(C/C=C(/C)C(=O)O)C4=O)C3=O [GAMBOGIC ACID]	> 20 µM	> 20 µM
CCN1CCc2nc(N)oc2CC1 [AZEPEXOLE]	> 20 µM	> 20 µM

SMILES	IC50	IC50 (read-out: pIC50 (converted))
NC[C@H]1O[C@H](O[C@H]2[C@H](O)[C@@H](O)[C@H](N)C[C@@H]2N)[C@H](N)[C@@H](O)[C@@H]1O [NEAMINE]	> 20 µM	> 20 µM
CC1(C)C(C=C(Cl)Cl)C1C(=O)OC(C#N)c1cccc(Oc2ccccc2)c1 (stereo not drawn) [ALPHA-CYPERMETHRIN]	> 20 µM	> 20 µM
Cc1ccc(-n2nccn2)c(C(=O)N2CCN(c3nc4cc(Cl)ccc4o3)CC[C@H]2C)c1 [SUVOREXANT]	> 20 µM	> 20 µM
COC(=O)CCc1ccc(OCC(O)CNC(C)C)cc1 (stereo unspecified) [ESMOLOL]	> 20 µM	> 20 µM
CN(C)CCc1c[nH]c2ccc(Cn3cncn3)cc12 [RIZATRIPTAN]	> 20 µM	> 20 µM
CCOC(=O)C1(c2ccccc2)CCN(CCC(C#N)(c2ccccc2)c2ccccc2)CC1 [DIPHENOXYLATE]	> 20 µM	> 20 µM
CO[C@H]1[C@H](O)[C@H](O[C@H]2CC[C@@]3(C=O)[C@H](CC[C@@H]4[C@@H]3CC[C@]3(C)[C@@H](C5=CC(=O)OC5)CC[C@]43O)C2)O[C@@H](C)[C@@H]1O [PERUVOSIDE]	> 20 µM	> 20 µM
COC(=O)[C@]12CCC(C)(C)C[C@H]1[C@H]1C(=O)C=C3[C@@]4(C)C=C(C#N)C(=O)C(C)(C)[C@@H]4CC[C@@]3(C)[C@]1(C)CC2 [BARDOXOLONE METHYL]	> 20 µM	> 20 µM
COC(=O)/C=C/C(=O)OC [DIMETHYL FUMARATE]	> 20 µM	> 20 µM
CNC(=O)c1nnc(NC(=O)C2CC2)cc1Nc1cccc(-c2ncn(C)n2)c1OC [CRAVACITINIB]	> 20 µM	> 20 µM
CC(C)n1nc(-c2ccc3oc(N)nc3c2)c2c(N)ncnc21 [SAPANISERTIB]	> 20 µM	> 20 µM
CN[C@@H](C)[C@H](O)c1ccc(O)cc1	> 20 µM	> 20 µM
CCOC(=O)OC(C)OC1=C(C(=O)Nc2ccccn2)N(C)S(=O)(=O)c2ccccc21 (stereo unspecified) [AMPIROXICAM]	> 20 µM	> 20 µM
CNC(=O)c1cc(Oc2ccc(NC(=O)Nc3cc(C(C)(C)C)nn3-c3ccc4ncccc4c3)c(F)c2)ccn1 [REBASTINIB]	> 20 µM	> 20 µM
CC(C)Cn1c(=O)n(C)c(=O)c2nc[nH]c21 [ISOBUTYLMETHYLXANTHINE]	> 20 µM	> 20 µM
CC(C)/N=C/Nc1ccc(-c2c[nH]cn2)cc1 [MIFENTIDINE]	> 20 µM	> 20 µM
COc1ccc(Cl)cc1C(=O)NCCc1ccc(S(=O)(=O)NC(=O)NC2CCCCC2)cc1 [GLYBURIDE]	> 20 µM	> 20 µM
C[N+](C)(C)C[C@H](O)CC(=O)O [DEXTROCARNITINE]	> 20 µM	> 20 µM
Oc1ccc(C(O)C2CCCCN2)cc1O (stereo unspecified) [RIMITEROL]	> 20 µM	> 20 µM
CCc1c(C)[nH]c2c1C(=O)C(CN1CCOCC1)CC2 (stereo unspecified) [MOLINDONE]	> 20 µM	> 20 µM
CC12CCC(C(=O)N(CCCCN3CCN(c4ccccn4)CC3)C1=O)C2(C)C (stereo unspecified)	> 20 µM	> 20 µM
